Results as given in ChEMBL document CHEMBL1136423, “Phosphate ester serum albumin affinity tags greatly improve peptide half-life in vivo” (Bioorg Med Chem Lett, 2003).
Where a SMILES comes first, the peptide text is derived from it. Bridges are numbered along the chain shown (N, C = ends). The star is where a group is joined. X3 = O=C(CCCCCOP(=O)(O)OC1CCC(c2ccccc2)(c2ccccc2)CC1)*; X4 = O=C(CCC(=O)*)NS(=O)(=O)c1ccc2ccccc2c1; X2 = O=C(CCCCCOP(=O)(O)Oc1ccc2ccccc2c1)*; X1 = O=C(CCCCCOP(=O)(O)OCCCCCc1ccccc1)*

Tests used:
[1] = target: Albumin (Homo sapiens, UniProt P02768); experiment: Compound was measured for its retention time in human serum albumin;where k`=tt-t0/t0; tt=retention time of compound and t0=retention time of DMSO
Sequence of Albumin (P02768 whole entry): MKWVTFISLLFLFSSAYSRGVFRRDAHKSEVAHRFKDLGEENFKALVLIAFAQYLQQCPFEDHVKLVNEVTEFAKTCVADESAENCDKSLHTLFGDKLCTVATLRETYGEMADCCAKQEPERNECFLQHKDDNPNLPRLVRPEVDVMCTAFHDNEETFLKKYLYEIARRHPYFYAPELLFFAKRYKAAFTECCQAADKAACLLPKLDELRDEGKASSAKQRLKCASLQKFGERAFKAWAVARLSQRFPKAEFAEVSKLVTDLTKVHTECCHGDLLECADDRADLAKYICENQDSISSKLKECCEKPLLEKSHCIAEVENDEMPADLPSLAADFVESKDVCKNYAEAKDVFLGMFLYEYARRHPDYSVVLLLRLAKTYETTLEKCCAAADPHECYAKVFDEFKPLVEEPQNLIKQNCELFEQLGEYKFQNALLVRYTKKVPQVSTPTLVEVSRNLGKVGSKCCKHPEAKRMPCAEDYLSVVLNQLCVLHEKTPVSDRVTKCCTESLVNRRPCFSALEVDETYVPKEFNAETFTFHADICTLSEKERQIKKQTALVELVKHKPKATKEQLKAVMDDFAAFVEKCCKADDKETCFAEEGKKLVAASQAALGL

[2] = target: T1, Coagulation factor VII (Homo sapiens, UniProt P08709); experiment: Inhibitory activity for the compound against coagulation factor VIIa in presence of 0.1% human serum albumin
T1 sequence (P08709 whole entry): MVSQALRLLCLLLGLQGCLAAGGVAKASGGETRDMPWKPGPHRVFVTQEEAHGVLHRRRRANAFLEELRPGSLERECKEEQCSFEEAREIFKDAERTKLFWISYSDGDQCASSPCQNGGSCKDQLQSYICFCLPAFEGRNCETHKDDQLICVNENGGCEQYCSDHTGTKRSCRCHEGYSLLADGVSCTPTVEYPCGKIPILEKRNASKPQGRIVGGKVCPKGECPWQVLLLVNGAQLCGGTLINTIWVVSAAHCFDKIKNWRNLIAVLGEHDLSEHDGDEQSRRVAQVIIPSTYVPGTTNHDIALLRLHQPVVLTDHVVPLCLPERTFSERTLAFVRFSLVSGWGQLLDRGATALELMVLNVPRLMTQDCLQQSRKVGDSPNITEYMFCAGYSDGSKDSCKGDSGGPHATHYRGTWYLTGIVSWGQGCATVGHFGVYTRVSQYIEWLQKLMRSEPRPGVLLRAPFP

[3] = target: T1, Coagulation factor VII; experiment: Inhibitory activity for the compound against coagulation factor VIIa in presence of 0.1% rabbit serum albumin
[4] = Clearance was measured at the concentration of 2.0 mg/kg in rabbit blood sample; format: ADME, organism-based, Oryctolagus cuniculus; design: dose 2 mg/kg
[5] = Half-life was measured at the concentration of 2.0 mg/kg in rabbit blood sample; format: ADME, organism-based, Oryctolagus cuniculus; design: dose 2 mg/kg
[6] = target: T1, Coagulation factor VII; experiment: Inhibitory activity for the compound against coagulation factor VIIa in presence of 1% ovalbumin
[7] = Clearance was measured at the concentration of 1.11 mg/kg in rabbit blood sample; format: ADME, organism-based, Oryctolagus cuniculus; design: dose 1.11 mg/kg
[8] = Half-life was measured at the concentration of 1.11 mg/kg in rabbit blood sample; format: ADME, organism-based, Oryctolagus cuniculus; design: dose 1.11 mg/kg

Row | Structure (SMILES) | k'/k'+1 [1] | IC50 [2] | IC50 [3] | clearance [4] | half-life [5] | IC50 [6] | clearance [7] | half-life [8]
1 | CC[C@H](C)[C@@H]1NC(=O)[C@H](CCCN=C(N)N)NC(=O)[C@@H]2CCCN2C(=O)[C@H](CC(N)=O)NC(=O)[C@H](CC(=O)O)NC(=O)[C@@H](NC(=O)[C@H](CC(C)C)NC(=O)[C@H](C)NC(=O)CCCCCOP(=O)(O)OC2CCC(c3ccccc3)(c3ccccc3)CC2)CSSC[C@@H](C(=O)N[C@@H](CCC(N)=O)C(=O)N[C@@H](Cc2ccccc2)C(=O)N[C@H](C(=O)N[C@@H](CCC(=O)O)C(=O)NCC(N)=O)C(C)C)NC(=O)[C@H](Cc2ccc(O)cc2)NC(=O)[C@H](Cc2c[nH]c3ccccc23)NC(=O)[C@H](CCCN=C(N)N)NC(=O)[C@H](CC(=O)O)NC1=O (X3-ALCDNPRIDRWYCQFVEG-NH2; disulfide 3-13) | 0.78 | 3.4 nM | 90 nM | 0.185 mL/min/kg | 222 min | 4 nM | – | –
2 | CC[C@H](C)[C@@H]1NC(=O)[C@H](CCCN=C(N)N)NC(=O)[C@@H]2CCCN2C(=O)[C@H](CC(N)=O)NC(=O)[C@H](CC(=O)O)NC(=O)[C@@H](NC(=O)[C@H](CC(C)C)NC(=O)[C@H](C)NC(=O)CCCCCOP(=O)(O)Oc2ccc3ccccc3c2)CSSC[C@@H](C(=O)N[C@@H](CCC(N)=O)C(=O)N[C@@H](Cc2ccccc2)C(=O)N[C@H](C(=O)N[C@@H](CCC(=O)O)C(=O)NCC(N)=O)C(C)C)NC(=O)[C@H](Cc2ccc(O)cc2)NC(=O)[C@H](Cc2c[nH]c3ccccc23)NC(=O)[C@H](CCCN=C(N)N)NC(=O)[C@H](CC(=O)O)NC1=O (X2-ALCDNPRIDRWYCQFVEG-NH2; disulfide 3-13) | 0.92 | 2 nM | 9.2 nM | 0.707 mL/min/kg | 34.8 min | 1.9 nM | – | –
3 | CC[C@H](C)[C@@H]1NC(=O)[C@H](CCCN=C(N)N)NC(=O)[C@@H]2CCCN2C(=O)[C@H](CC(N)=O)NC(=O)[C@H](CC(=O)O)NC(=O)[C@@H](NC(=O)[C@H](CC(C)C)NC(=O)[C@H](C)NC(C)=O)CSSC[C@@H](C(=O)N[C@@H](CCC(N)=O)C(=O)N[C@@H](Cc2ccccc2)C(=O)N[C@H](C(=O)N[C@@H](CCC(=O)O)C(=O)NCC(N)=O)C(C)C)NC(=O)[C@H](Cc2ccc(O)cc2)NC(=O)[C@H](Cc2c[nH]c3ccccc23)NC(=O)[C@H](CCCN=C(N)N)NC(=O)[C@H](CC(=O)O)NC1=O (Ac-ALCDNPRIDRWYCQFVEG-NH2; disulfide 3-13) | 0.21 | 11 nM | 9.7 nM | – | – | 9.2 nM | 26.8 mL/min/kg | 4.18 min
4 | CC[C@H](C)[C@@H]1NC(=O)[C@H](CCCN=C(N)N)NC(=O)[C@@H]2CCCN2C(=O)[C@H](CC(N)=O)NC(=O)[C@H](CC(=O)O)NC(=O)[C@@H](NC(=O)[C@H](CC(C)C)NC(=O)[C@H](C)NC(=O)CCC(=O)NS(=O)(=O)c2ccc3ccccc3c2)CSSC[C@@H](C(=O)N[C@@H](CCC(N)=O)C(=O)N[C@@H](Cc2ccccc2)C(=O)N[C@H](C(=O)N[C@@H](CCC(=O)O)C(=O)NCC(N)=O)C(C)C)NC(=O)[C@H](Cc2ccc(O)cc2)NC(=O)[C@H](Cc2c[nH]c3ccccc23)NC(=O)[C@H](CCCN=C(N)N)NC(=O)[C@H](CC(=O)O)NC1=O (X4-ALCDNPRIDRWYCQFVEG-NH2; disulfide 3-13) | 0.97 | 2.5 nM | 24 nM | 1.64 mL/min/kg | 30 min | 3.6 nM | – | –
5 | CC[C@H](C)[C@@H]1NC(=O)[C@H](CCCN=C(N)N)NC(=O)[C@@H]2CCCN2C(=O)[C@H](CC(N)=O)NC(=O)[C@H](CC(=O)O)NC(=O)[C@@H](NC(=O)[C@H](CC(C)C)NC(=O)[C@H](C)NC(=O)CCCCCOP(=O)(O)OCCCCCc2ccccc2)CSSC[C@@H](C(=O)N[C@@H](CCC(N)=O)C(=O)N[C@@H](Cc2ccccc2)C(=O)N[C@H](C(=O)N[C@@H](CCC(=O)O)C(=O)NCC(N)=O)C(C)C)NC(=O)[C@H](Cc2ccc(O)cc2)NC(=O)[C@H](Cc2c[nH]c3ccccc23)NC(=O)[C@H](CCCN=C(N)N)NC(=O)[C@H](CC(=O)O)NC1=O (X1-ALCDNPRIDRWYCQFVEG-NH2; disulfide 3-13) | 0.92 | 2.4 nM | 22 nM | 0.505 mL/min/kg | 79.1 min | 2 nM | – | –
